Experimental data reported in a melting point compilation (Tetko et al.).

Structure (SMILES) | melting point
O=[N+]([O-])c1ccccc1N1CSc2nnc(-c3ccccc3)n2C1 | > 300 °C
CC(Br)C(=O)O (configuration not stated) | 25 °C
CNC(=O)Oc1ccc2c(c1)C1(C)CCN(C)C1N2C (configuration not stated) | 106 °C
Cn1[nH]c(N)c2c(=O)c(C(=O)O)cnc1-2 | 224 °C
CC1(C)CC(=O)C2=C(C1)Nc1c(ccc3ccccc13)C2c1ccc(F)cc1 (configuration not stated) | 279 °C
Cc1cc(C)c(CS)c(C)c1CS | 65 to 66 °C
Nc1c2ccccc2nc2ccccc12 | 241 °C
C=CCNC(N)=S | 78 °C
O=C(O)CC(C(=O)O)C(CC(=O)O)C(=O)O (configuration not stated) | 195 to 197 °C
CN1CCN(c2ccc(C=O)cc2)CC1 | 57 to 60 °C
Cc1cccc2[nH]ccc12 | 5 °C
C=CCCCCCCCCCCC | -13 °C
CCN(CC)c1ccc(C(c2ccc(N(CC)CC)cc2C)c2ccc(N(CC)CC)cc2C)c(C)c1 | 163 to 165 °C
Fc1c(F)c(F)c(Sc2c(F)c(F)c(F)c(F)c2F)c(F)c1F | 87 °C
CC(=O)N1CCSC1C(=O)NN (configuration not stated) | 193 to 196 °C
CC(C)[C@H](N)C(O)(c1ccccc1)c1ccccc1 | 92 °C
CCOC=C(C#N)S(=O)(=O)c1ccccc1 | 74 °C
CC(=O)N(c1ccccc1)c1cc(N(C(C)=O)c2ccccc2)c([N+](=O)[O-])cc1[N+](=O)[O-] | 233 °C
Cc1cnc(N)c([N+](=O)[O-])c1 | 190 to 195 °C
CC(C)CC=O | -51 °C
COC(=O)c1ccccc1S(=O)(=O)NC(=O)N(C)c1nc(C)nc(OC)n1 | 142 °C
CC(C)(C)Oc1ncc(Br)c(OC(C)(C)C)n1 | 60 °C
CC(=O)OC1C2=C(C(=O)C(OC(C)=O)C3(CC3C)C2=O)C2(C)CCC(C)=C(C)C2C1O (configuration not stated) | 176 to 178 °C
Cc1cc(C)c(O)c([N+](=O)[O-])c1 | 70 °C
N#CCCCC#N | -29 °C
CC(C)(CC(=O)O)C(=O)O | 140 °C

Structure (SMILES) | melting point
Cc1ccc(O)c2ccccc12 | 85.8 °C
ClCc1ccc(CCl)cc1 | 100 °C
O=c1n(CCO)c(=O)n(CCO)c(=O)n1CCO | 138 °C
FC1(F)C(F)(F)C(F)(F)C2(F)C(F)(C1(F)F)C(F)(F)C(F)(F)C1(F)C(F)(F)C(F)(F)C(F)(F)C(F)(F)C12F (configuration not stated) | -20 °C
O=C1c2ccccc2C(=O)C1(Br)c1ccccc1 | 106 to 107 °C
CCC(C)C(N)CO (configuration not stated) | 36 to 39 °C
Cc1cc(C(C)(C)C)cc(C)c1CC1=NCCN1 | 131 °C
FC(F)=C(F)C(F)(F)F | -156 °C
O=S1(=O)CC(O)C(Br)C1 (configuration not stated) | 190 to 192 °C
O=[N+]([O-])c1cc(Cl)c(Cl)cc1Cl | 57.5 °C
CCCC1COC(Cn2cncn2)(c2ccc(Cl)cc2Cl)O1 (configuration not stated) | < 25 °C
CC(=O)OCC1=CC2CC(=O)C3=COC(OC4OC(CO)C(O)C(O)C4O)C1C32 (configuration not stated) | 128 °C
OCC1OC(SCCc2ccccc2)C(O)C(O)C1O (configuration not stated) | 100 °C
O=C(O)C1(Cl)CC2C=CC1C2 (configuration not stated) | 139 to 141 °C
CCCCCCCCc1ccc(C(Cl)=Cc2ccc(OCC)cc2)cc1 | 32 °C
CC(=O)C(C(C)=O)=C1SCCS1 | 91 °C
CC(C)(Cc1ccc(F)cc1)N=Cc1ccccc1 | 44 °C
C=Cc1c(SC)sc(C(=O)O)c1C | 172 to 174 °C
Cn1cnc(C(=O)O)c1 | 245 °C
O=C1OC(/C=C/c2ccccc2)Cc2ccccc21 (configuration not stated) | 84 °C
NNC(=S)NN | 168 to 172 °C
COC(=O)C(=O)CC(C)=O | 63 to 64 °C
COC(=O)c1c(C)noc1-c1cc(C)on1 | 84 to 86 °C
CC(=O)OCC(=O)C12OC(C)(C)OC1CC1C3CC(F)C4=CC(=O)C=CC4(C)C3(F)C(O)CC12C (configuration not stated) | 309 °C
Cc1nn(-c2ccccc2)c(N)c1C#N | 129 to 131 °C
COc1ccc2c(c1)CCC1C2CCC2(C)C(O)C(O)CC12 (configuration not stated) | 159 °C

Structure (SMILES) | melting point
CCOC(=O)c1nn(-c2ccc(C)cc2)c(C)c1C(=O)C1=NOC2C(=O)N(c3ccc(F)cc3)C(=O)C12 (configuration not stated) | 211 °C
NC(=NO)c1cccnc1 | 130 to 131 °C
CC(C#N)CCC#N (configuration not stated) | -45 °C
CCN(Cc1ccncc1)C(=O)C(CO)c1ccccc1 (configuration not stated) | 96 °C
CCOC(=O)CCCCCCC(=O)OCC | 5.9 °C
CC1NC2CCCCCCCC(=O)OC3CCC(CCCCCCCC(=O)OC1CC2)NC3C (configuration not stated) | 121 °C
c1ccc(Cn2cncn2)cc1 | 49 °C
O=C1CCCCCCCCCCCC1 | 25 °C
CCCCC(=O)OC1(C(=O)CO)CCC2C3CCC4=CC(=O)CCC4(C)C3C(O)CC21C (configuration not stated) | 218 °C
C=CCOCC(CC)(CO)CO | -10 °C
Cc1ccc(C(c2ccc(C)o2)c2cc(Br)cc(Br)c2O)o1 | 88 °C
ClC1=C(Cl)C2(Cl)C3C4OC4C(Cl)C3C1(Cl)C2(Cl)Cl (configuration not stated) | 160 °C
Cc1ccc(-c2ccc(C)s2)s1 | 65 to 68 °C
NCC(=O)O | 182 °C
CC1(C)[C@H](C(=O)OC(C#N)c2cccc(Oc3ccccc3)c2)[C@@H]1C=C(Cl)Cl (some centres not stated) | 79 °C
OC1(c2ccccc2)Cc2ccccc21 (configuration not stated) | 68 °C
N#CC(=Cc1ccc([N+](=O)[O-])cc1)C(N)=S | 311 °C
C=CCc1cc(OC)c2c(c1OC)OCO2 | 29.5 °C
O=C(O)C(O)(C(F)(F)F)C(F)(F)F | 81 °C
O=C(CBr)c1ccc(F)cc1 | 47 °C
Nc1ccnc2ccccc12 | 155 °C
CCC[N+](=O)[O-] | -108 °C
Cc1cc(C)c(CS(=O)(=O)Cc2c(C)cc(C)cc2C)c(C)c1 | 297 to 300 °C
CC(=O)CC[C@H]1[C@@H](C#N)[C@H](C(C)C)CC[C@@]1(C)OC(C)=O | 106 to 109 °C
Cc1cc(NN)nc(C)n1 | 189 to 190 °C

Second part, the compound after the results:

melting point | Structure (SMILES)
179 to 180 °C | CCOC(=O)NN(C(=O)OCC)c1c(-c2ccccc2)nc2n1CCS2
162 to 168 °C | O=Cc1coc2ccc(Cl)cc2c1=O
38 °C | O=S(=O)(Cl)c1cc(Cl)ccc1Cl
152 °C | Cc1cc(C)c(C(=O)O)cc1C
133 °C | COc1c2c(cc3oc(=O)ccc13)OC(C)(C)C=C2
25.3 °C | O=Cc1cc(F)c(F)c(F)c1
110 °C | CCCCCCNC(=O)n1cc(F)c(=O)[nH]c1=O
210 °C | Clc1cc(Cl)c2c(oc3ccc(Cl)c(Cl)c32)c1Cl
48 to 51 °C | O=C(Cl)c1cc(-c2ccccc2)c(C(F)(F)F)s1
73 °C | O=C(O)c1cccc(SC(F)(F)F)c1
202 to 207 °C | CC(=O)Nc1cc(Cl)ccc1C(=O)O
145 °C | NS(=O)(=O)c1cc(S(=O)(=O)c2cccc(O)c2)cs1
71.5 °C | Nc1ccc(C=O)cc1
69 °C | Cc1ccc(F)c(CO)c1Cl
63 to 64 °C | CCOC(=O)c1cc(-c2ccco2)n(C)n1
222 to 223 °C | O=C(O)c1ccc(CN2CCS(=O)(=O)CC2)cc1
174 to 176 °C | CS(=O)(=O)c1ccc2ccn(O)c2c1
48 °C | CCN(CC)c1ccc(C(C)=O)cc1
58 to 59 °C | OC1Cc2ccccc21 (configuration not stated)
97 °C | CCCC(=O)Nc1ccccc1
225 °C | CC1=C(C(=O)OC(C)C)C(c2cccc([N+](=O)[O-])c2)NC(=S)N1 (configuration not stated)
177 °C | N#CC1C(=O)CC(=O)CC1c1ccccc1 (configuration not stated)
277 °C | O=c1c(O)c(-c2ccc(O)cc2)oc2cc(O)cc(O)c12
100 °C | CC(=O)c1occc1O
211 °C | O=C(Nc1cc(Cl)ccc1Cl)C(C(F)(F)F)C(F)(F)F

melting point | Structure (SMILES)
140 °C | ClCc1c2ccccc2cc2ccccc12
73 °C | CCOC(=O)C=Cc1ccc(N)cc1
93 °C | Clc1cc(Br)cc(Br)c1
72.5 °C | O=[N+]([O-])c1c(Cl)cccc1Cl
154 °C | O=C(Nc1cccc(Cl)c1)C(C(F)(F)F)C(F)(F)F
109 °C | O=C(O)Cc1c(F)c(F)c(F)c(F)c1F
270 °C | N#C/C(=N\Nc1ccccc1[N+](=O)[O-])c1nc2ccccc2[nH]1
137 to 138 °C | O=C1C(c2ccc(Br)cc2)=C(O)c2ccccc21
161 °C | COc1cc(C=C(S)C(=O)O)ccc1O
99 °C | COc1cc(F)c(C=O)cc1F
249 °C | O=C1C(C(O)c2ccc(Cl)cc2Cl)C(C(F)(F)F)=NN1c1ccccc1 (configuration not stated)
85.5 °C | CCCC(C)C(=O)Nc1ccc(C)c(Cl)c1 (configuration not stated)
127 to 129 °C | O=[N+]([O-])c1ccc2c(c1)S(=O)(=O)CC2SCCO (configuration not stated)
159 °C | Cc1cccc(C)c1NC(=O)CN1CCN(CCCC(c2ccc(F)cc2)c2ccc(F)cc2)CC1
75 to 77 °C | CCOC(=O)CC(=O)c1cccc([N+](=O)[O-])c1
253 °C | O=C(O)c1cc(O)c(O)c(O)c1
46 to 48 °C | COC(=O)c1ccc(OC)c(OC)c1Cl
141 °C | COc1ccc(C(=O)C2=NOC3C(=O)N(c4ccc(F)cc4)C(=O)C23)cc1 (configuration not stated)
164 to 165 °C | CCOC(=O)c1c(NC(=O)Nc2cccc(Cl)c2)sc2c1CCCC2
198 °C | O=C(O)c1c(Cl)c(Cl)c(Cl)c(Cl)c1C(=O)Nc1cccc(Cl)c1Cl
99 °C | COc1cc(F)c(F)cc1C#N
107 to 108 °C | COC(=O)c1sc2ccccc2c1N
145 °C | O=C(Nc1cccnc1)C(F)(F)C(F)(F)C(F)(F)C(F)(F)C(F)(F)C(F)(F)C(F)(F)C(F)(F)F
134 to 135 °C | OCCCc1nc2cc(C(F)(F)F)ccc2[nH]1
138 °C | Cc1c(C)c(C)c(C(=O)c2ccccc2)c(C)c1C
